# Assay results from patent US10017403B2, “Use of peracetic acid/hydrogen peroxide and peroxide-reducing enzymes for treatment of drilling fluids, frac fluids, flowback water and disposal water” (ECOLAB USA INC., priority 2012, dated 2018).
# Tests used:
# fracking water mixtures [1] = assay: Micro efficacy in fracking water mixtures, baseline without catalase (Example 3); format: cell-based
# Protocol: The impact of water pretreatment with 500 ppm of the EnviroSan product (75 ppm POAA) on micro efficacy in various fracking water mixtures were evaluated. The example represents a baseline data set of various water treatment options according to the invention. Table 2 and FIG. 3 show the average log reduction in various slick water treatments with varying ppm PAA (without any catalase treatment or pretreatment), representing a baseline data set.
# [2] = Titration of POAA consumption in water mixtures (Example 6); format: physicochemical
# [3] = test system: Pseudomonas aeruginosa ATCC 15442; assay: Micro efficacy at 30 ppm POAA with or without catalase, with or without water pretreatment (Example 7); format: cell-based; conditions: no holding tank pretreatment, 30 ppm PAA
# Protocol: All water mixtures were treated with an initial concentration of 30 ppm POAA EnviroSan, both with and without the addition of catalase. The data set evaluates whether there is a significant difference in micro activity generated between treatments of EnviroSan alone vs. EnviroSan pre-reduced with catalase.
# All ratios of fracking water mixtures tested (100/0, 90/10, 80/20 & 70/30) were freshly mixed solutions, as well as solutions mixed and pretreated with 500 ppm EnviroSan product more than 1 hour before the start of the micro evaluation, in order to observe if a pretreatment step is of value for micro performance compared to those mixtures not pretreated. The test system (P. aeruginosa and natural water) described in Example 5 was again utilized. Water mixtures as outlined in Table 9 were provided (showing the percentage of 100 mL of each water sample type).
# The testing methods of Example 5 were utilized for the chemically treated water samples, differing only in the combination of the 10 mL inoculated water mixtures with appropriate volumes of the EnviroSan with or without catalase to achieve 30 ppm POAA residual to each test tube in timed intervals and mixed. The methods of Example 5 were employed to make the EnviroSan with catalase stock solutions. In comparison, for the water samples that were not chemically treated, 9.9 mL of test water mixture was dispensed into 2 individual test tubes. 0.10 mL of an approximate 10^8 CFU/mL culture of P. aeruginosa was added in timed intervals and mixed thoroughly. Then 1 mL samples were neutralized in 9 mL of 0.5% sodium thiosulfate, followed by serial dilution and enumeration after 2.5 minutes, 5 minutes and 60 minute exposure times.
# Table 11C show the use of 30 ppm POAA with/without catalase treatment compared for micro performance at both 2.5 and 5.0 minutes exposure times. Upon addition of 10-30% reuse water a defined drop in antimicrobial performance was observed over both 2.5 and 5 minutes as peracid was rapidly consumed if not pretreated with catalase. A residual of 30 ppm POAA at 5 minutes was needed to achieve the desired antimicrobial performance.
# fracking water mixtures [4] = assay: Micro efficacy: POAA dosed for 30 ppm residual versus POAA pretreated with catalase (Example 8); format: cell-based; conditions: no holding tank treatment
# Protocol: A micro efficacy comparison of POAA added at levels to target 30 ppm POAA residuals at 5 minutes versus POAA pretreated with catalase was conducted as set forth in Table 12.
# [5] = Catalase amount needed in POAA treated water, iodometric titration (Example 15); format: biochemical
# Protocol: Field of use applications were analyzed to determine the amount of a peroxide-reducing enzyme necessary to obtain desired concentrations of both peracid and hydrogen peroxide in a treated water source. EnviroSan (POAA) peracid composition was added to water to reach the targeted POAA concentrations set forth in Table 18, and the concentration of both POAA and H2O2 were confirmed by iodometric titration. Then catalase (ES2000) was added to the solution, and the sample was stored under ambient conditions. The concentration of POAA and H2O2 were monitored by the iodometric conditions.
# [6] = catalase 0.5 ppm, time 0 hr, series starting 14.6 ppm POAA, EnviroSan in water, ambient
# [7] = catalase 0.5 ppm, time 0 hr, series starting 31.1 ppm POAA
# [8] = catalase 0.5 ppm, time 1 hr, series starting 14.6 ppm POAA
# [9] = catalase 0.5 ppm, time 1 hr, series starting 31.1 ppm POAA
# [10] = catalase 0.5 ppm, time 2 hr, series starting 14.6 ppm POAA
# [11] = catalase 0.5 ppm, time 2 hr, series starting 31.1 ppm POAA
# [12] = catalase 0.5 ppm, time 3.6 hr, series starting 14.6 ppm POAA
# [13] = catalase 0.5 ppm, time 3.6 hr, series starting 31.1 ppm POAA
# [14] = catalase 1.0 ppm, time 0 hr, series starting 14.8 ppm POAA
# [15] = catalase 1.0 ppm, time 0 hr, series starting 30.1 ppm POAA
# [16] = catalase 1.0 ppm, time 1 hr, series starting 14.8 ppm POAA
# [17] = catalase 1.0 ppm, time 1 hr, series starting 30.1 ppm POAA
# [18] = catalase 1.0 ppm, time 2 hr, series starting 14.8 ppm POAA
# [19] = catalase 1.0 ppm, time 2 hr, series starting 30.1 ppm POAA
# [20] = catalase 1.0 ppm, time 3.6 hr, series starting 14.8 ppm POAA
# [21] = catalase 1.0 ppm, time 3.6 hr, series starting 30.1 ppm POAA
molecule,measurement,setting,value
"CC(=O)OO [POAA, peracetic acid]",Avg. Log10 Reduction,"fracking water mixtures [1]; 75 ppm PAA holding tank pretreatment, 10% reuse H2O, 29 ppm POAA, no catalase, 2.5 minutes",6.45 Log10
same,Avg. Log10 Reduction,"fracking water mixtures [1]; 75 ppm PAA holding tank pretreatment, 10% reuse H2O, 29 ppm POAA, no catalase, 5 minutes",6.71 Log10
same,Avg. Log10 Reduction,"fracking water mixtures [1]; 75 ppm PAA holding tank pretreatment, 20% reuse H2O, 47 ppm PAA, no catalase, 2.5 minutes",6.42 Log10
same,Avg. Log10 Reduction,"fracking water mixtures [1]; 75 ppm PAA holding tank pretreatment, 20% reuse H2O, 47 ppm PAA, no catalase, 5 minutes",6.55 Log10
same,Avg. Log10 Reduction,"fracking water mixtures [1]; 75 ppm PAA holding tank pretreatment, 30% reuse H2O, 86 ppm POAA, no catalase, 2.5 minutes",6.47 Log10
same,Avg. Log10 Reduction,"fracking water mixtures [1]; 75 ppm PAA holding tank pretreatment, 30% reuse H2O, 86 ppm POAA, no catalase, 5 minutes",6.41 Log10
same,Avg. Log10 Reduction,"fracking water mixtures [1]; no holding tank pretreatment, 0% reuse H2O, 22 ppm POAA, 2.5 minutes",5.53 Log10
same,Avg. Log10 Reduction,"fracking water mixtures [1]; no holding tank pretreatment, 0% reuse H2O, 22 ppm POAA, 5 minutes",5.75 Log10
same,Avg. Log10 Reduction,"fracking water mixtures [1]; no holding tank pretreatment, 10% reuse H2O, 36 ppm POAA, 2.5 minutes",4.32 Log10
same,Avg. Log10 Reduction,"fracking water mixtures [1]; no holding tank pretreatment, 10% reuse H2O, 36 ppm POAA, 5 minutes",4.72 Log10
same,Avg. Log10 Reduction,"fracking water mixtures [1]; no holding tank pretreatment, 20% reuse H2O, 86 ppm POAA, 2.5 minutes",4.57 Log10
same,Avg. Log10 Reduction,"fracking water mixtures [1]; no holding tank pretreatment, 20% reuse H2O, 86 ppm POAA, 5 minutes",4.64 Log10
same,Avg. Log10 Reduction,"fracking water mixtures [1]; no holding tank pretreatment, 30% reuse H2O, 138 ppm POAA, 2.5 minutes",4.12 Log10
same,Avg. Log10 Reduction,"fracking water mixtures [1]; no holding tank pretreatment, 30% reuse H2O, 138 ppm POAA, 5 minutes",5.00 Log10
same,Actual Titrated Concentration (ppm POAA),"[2]; 70% Fresh/30% Produced, desired 30 ppm POAA, 1 minutes",7 ppm
same,Actual Titrated Concentration (ppm POAA),"[2]; 70% Fresh/30% Produced, desired 30 ppm POAA, 5 minutes",0 ppm
same,Actual Titrated Concentration (ppm POAA),"[2]; 70% Fresh/30% Produced, desired 40 ppm POAA, 1 minutes",12 ppm
same,Actual Titrated Concentration (ppm POAA),"[2]; 70% Fresh/30% Produced, desired 40 ppm POAA, 5 minutes",0 ppm
same,Actual Titrated Concentration (ppm POAA),"[2]; 80% Fresh/20% Produced, desired 30 ppm POAA, 1 minutes",13 ppm
same,Actual Titrated Concentration (ppm POAA),"[2]; 80% Fresh/20% Produced, desired 30 ppm POAA, 5 minutes",0 ppm
same,Actual Titrated Concentration (ppm POAA),"[2]; 80% Fresh/20% Produced, desired 40 ppm POAA, 1 minutes",21 ppm
same,Actual Titrated Concentration (ppm POAA),"[2]; 80% Fresh/20% Produced, desired 40 ppm POAA, 5 minutes",2 ppm
same,Actual Titrated Concentration (ppm POAA),"[2]; 90% Fresh/10% Produced, desired 30 ppm POAA, 1 minutes",21 ppm
same,Actual Titrated Concentration (ppm POAA),"[2]; 90% Fresh/10% Produced, desired 30 ppm POAA, 5 minutes",8 ppm
same,Actual Titrated Concentration (ppm POAA),"[2]; 90% Fresh/10% Produced, desired 40 ppm POAA, 1 minutes",30 ppm
same,Actual Titrated Concentration (ppm POAA),"[2]; 90% Fresh/10% Produced, desired 40 ppm POAA, 5 minutes",16 ppm
same,Avg. Log10 Reduction,"[3]; 0% reuse H2O, 2.5 minutes",4.64 Log10
same,Avg. Log10 Reduction,"[3]; 0% reuse H2O, 5 minutes",6.32 Log10
same,Avg. Log10 Reduction,"[3]; 10% reuse H2O, 2.5 minutes",3.09 Log10
same,Avg. Log10 Reduction,"[3]; 10% reuse H2O, 5 minutes",3.91 Log10
same,Avg. Log10 Reduction,"[3]; 20% reuse H2O, 2.5 minutes",2.19 Log10
same,Avg. Log10 Reduction,"[3]; 20% reuse H2O, 5 minutes",2.38 Log10
same,Avg. Log10 Reduction,"[3]; 30% reuse H2O, 2.5 minutes",1.88 Log10
same,Avg. Log10 Reduction,"[3]; 30% reuse H2O, 5 minutes",1.93 Log10
same,Avg. Log10 Reduction,"fracking water mixtures [4]; 10% reuse H2O, 46 ppm PAA, 2.5 minutes",4.32 Log10
same,Avg. Log10 Reduction,"fracking water mixtures [4]; 10% reuse H2O, 46 ppm PAA, 5 minutes",4.72 Log10
same,Avg. Log10 Reduction,"fracking water mixtures [4]; 20% reuse H2O, 86 ppm PAA, 2.5 minutes",4.57 Log10
same,Avg. Log10 Reduction,"fracking water mixtures [4]; 20% reuse H2O, 86 ppm PAA, 5 minutes",4.64 Log10
same,Avg. Log10 Reduction,"fracking water mixtures [4]; 30% reuse H2O, 138 ppm PAA, 2.5 minutes",4.12 Log10
same,Avg. Log10 Reduction,"fracking water mixtures [4]; 30% reuse H2O, 138 ppm PAA, 5 minutes",5.00 Log10
catalase,catalase concentration sufficient for treating the water source,[5]; ambient conditions,~1 ppm
same,H2O2 (ppm),[5]; [6],12.0 ppm
same,POAA (ppm),[5]; [6],14.6 ppm
same,H2O2 (ppm),[5]; [7],22.8 ppm
same,POAA (ppm),[5]; [7],31.1 ppm
same,H2O2 (ppm),[5]; [8],7.5 ppm
same,POAA (ppm),[5]; [8],15.0 ppm
same,H2O2 (ppm),[5]; [9],12.2 ppm
same,POAA (ppm),[5]; [9],32.0 ppm
same,H2O2 (ppm),[5]; [10],6.5 ppm
same,POAA (ppm),[5]; [10],14.3 ppm
same,H2O2 (ppm),[5]; [11],7.8 ppm
same,POAA (ppm),[5]; [11],29.2 ppm
same,H2O2 (ppm),[5]; [12],1.8 ppm
same,POAA (ppm),[5]; [12],14.2 ppm
same,H2O2 (ppm),[5]; [13],3.4 ppm
same,POAA (ppm),[5]; [13],30.6 ppm
same,H2O2 (ppm),[5]; [14],12.6 ppm
same,POAA (ppm),[5]; [14],14.8 ppm
same,H2O2 (ppm),[5]; [15],23.3 ppm
same,POAA (ppm),[5]; [15],30.1 ppm
same,H2O2 (ppm),[5]; [16],3.7 ppm
same,POAA (ppm),[5]; [16],14.6 ppm
same,H2O2 (ppm),[5]; [17],7.6 ppm
same,POAA (ppm),[5]; [17],31.0 ppm
same,H2O2 (ppm),[5]; [18],1.1 ppm
same,POAA (ppm),[5]; [18],14.2 ppm
same,H2O2 (ppm),[5]; [19],2.3 ppm
same,POAA (ppm),[5]; [19],29.6 ppm
same,H2O2 (ppm),[5]; [20],0.4 ppm
same,POAA (ppm),[5]; [20],15.9 ppm
same,H2O2 (ppm),[5]; [21],0.0 ppm
same,POAA (ppm),[5]; [21],29.3 ppm
same,selectivity of catalase for H2O2 over POAA,[5]; tested ambient conditions,selectively decomposes the H2O2 without having any negative impact on POAA stability
same,lowest catalase concentration with which pond water with POAA and H2O2 could be treated,"[5]; within 4 hours, ambient conditions",0.5 ppm
